Laboratory results as given in US20250161250A1, “COMPOSITIONS AND METHODS FOR TREATMENT OF IDIOPATHIC PULMONARY FIBROSIS” (NUFORMIX TECHNOLOGIES LIMITED, priority 2022, published 2025).
Entries after “also recorded” stand apart in the source; their conditions may differ.

Experiments:
Format in all cases: cell-based
MCP-1 = MCP-1 levels in human IPF-PCLS culture supernatants (MSD multiplex ELISA); conditions: for MCP-1: after 4-day dosing; for MCP-1 secretion: any concentration tested, human IPF PCLS supernatant
Method: (§1) PCLS preparation and culture: PCLS were prepared from a single explanted human IPF lung and rested for 48 hrs to allow the post-slicing stress period to elapse before experiments began. PCLS were subsequently incubated with vehicle (0.1% DMSO), tranilast as a 1:1 l-lysine tranilast salt at 2 escalating concentrations (31.25 μM, 125 μM), pirfenidone at 3 escalating concentrations (0.25 mM, 1 mM, 2.5 mM) or nintedanib at 3 escalating concentrations (0.25 μM, 1 μM, 2.5 μM) in the presence or absence of Tranilast at 2 escalating concentrations (31.25 μM, 125 μM) for a further 96 hrs. PCLS culture media and all compounds were refreshed at 24 hrs intervals. All PCLS were harvested at 144 hrs.
(§2) Experimental groups: Twenty-one (21) different groups with n=6 human PCLS (total n=126 per lung) were investigated as shown in Table 4 below. PCLS were prepared from n=1 individual human IPF lungs.
(§3) PCLS Treatments and Media Collections: PCLS were incubated for a 48 hr rest period. Post-rest, PCLS were incubated for a further 96 hrs in the presence or absence of inhibitors as outlined above. PCLS culture media, including all compounds, were refreshed and harvested at 24 hrs intervals from 48 hrs. All PCLS were harvested at 144 hrs.
(§4) PCLS harvest: Cell culture supernatant (n=6 per group) were collected every 24 hrs and snap frozen for quantification of inflammatory cytokines and soluble ECM proteins. At harvest, PCLS (n=6 per group) and cell culture media (n=6 per group) were snap frozen for quantification of inflammatory cytokines and soluble ECM proteins.
(§5) Soluble outputs analysis: Anti-inflammatory potential was assessed by determining the levels of the inflammation markers MCP-1, IL-6, GMCSF, IL-8, and IL-1β in the tissue culture supernatants experiment (n=213 samples (n=630 samples; n=126 at 48 hrs, 72 hrs, 96 hrs, 120 hrs and 144 hrs) were quantified using a MSD multiplex ELISA (MesoScaleDiscovery). Anti-fibrotic potential was assessed by determining the levels of the fibrosis markers Collagen-1a1, TIMP1, and Fibronectin in the tissue culture supernatants (n=630 samples as above) were quantified using a single-plex ELISA (R&D). Summary data for all inflammatory markers and fibrotic markers in PCLS treated with pirfenidone (FIGS. 1a and 1b) or nintedanib (FIGS. 2a and 2b) in the presence or absence of Tranilast at 144 hrs only. Graphs are represented by n=6 tissue culture media per condition, per time point. Data is presented as mean±SEM with individual values per tissue culture media.

IL-6 = IL-6 levels in human IPF-PCLS culture supernatants (MSD multiplex ELISA); conditions: single treatment, any concentration tested
Method: as §1, §2
(§6) PCLS Treatments and Media Collections: PCLS were incubated for a 48 hr rest period. […]
as §4
as §5, with “Graphs are represented by n=6 tissue culture media per condition, per time point. Data is presented as mean±SEM with individual values per tissue culture media.” left out

IL-8 = IL-8 levels in human IPF-PCLS culture supernatants (MSD multiplex ELISA); conditions: single treatment, any concentration tested
Method: as §1, §2, §6, §4
as §5, with “Graphs are represented by n=6 tissue culture media per condition, per time point. Data is presented as mean±SEM with individual values per tissue culture media.” left out

Collagen-1a1 = assay: Collagen 1a1 levels in human IPF-PCLS culture supernatants (single-plex ELISA); conditions: for Collagen 1a1 secretion: single treatment; for Col1A1: after 4-day dosing
Method: as §1, §2, §3, §4, §5

Fibronectin = Fibronectin levels in human IPF-PCLS culture supernatants (single-plex ELISA); conditions: single treatment, high concentration, at 144 hrs
Method: as §1, §2, §6
PCLS harvest: Cell culture supernatant (n=6 per group) were collected every 24 hrs and snap frozen for quantification of inflammatory cytokines and soluble ECM proteins. At harvest, PCLS (n=6 per group) and cell culture media (n=6 per group) were snap frozen for quantification of inflammatory cytokines and soluble ECM proteins. […]

[1] = alone (suboptimal / ineffective concentration)
[2] = suboptimal concentrations alone

| Compound | MCP-1 (MCP-1; [1]) | MCP-1 secretion (MCP-1; single treatment) | IL-6 secretion (IL-6) | IL-8 secretion (IL-8) | Collagen 1a1 secretion (Collagen-1a1; any concentration tested) | MCP-1 (MCP-1; high concentration alone) | Col1A1 (Collagen-1a1; high concentration alone) | Col1A1 (Collagen-1a1; [2]) | Fibronectin secretion (Fibronectin) | MCP-1 levels (MCP-1; single treatment, high concentration) | Collagen 1a1 secretion (Collagen-1a1; high concentration) |
| --- | --- | --- | --- | --- | --- | --- | --- | --- | --- | --- | --- |
| COC(=O)c1ccc2c(c1)NC(=O)/C2=C(\Nc1ccc(N(C)C(=O)CN2CCN(C)CC2)cc1)c1ccccc1 [nintedanib] | no effect; also recorded: neither nintedanib (Nin) nor tranilast (TL) alone effected | little to no effect | Little to no effect | little to no effect | little to no effect | – | – | – | – | – | – |
| Cc1ccc(=O)n(-c2ccccc2)c1 [pirfenidone] | minimal effect | concentration dependently attenuated | Little to no effect | concentration dependently attenuated | concentration dependently attenuated | strongly inhibited | strongly inhibited | minimal effect | attenuation | – | – |
| COc1ccc(/C=C/C(=O)Nc2ccccc2C(=O)O)cc1OC [tranilast, 2-[[3-(3,4-dimethoxyphenyl)-1-oxo-2-propenyl]amino]benzoic acid] | minimal effect; also recorded: neither nintedanib (Nin) nor tranilast (TL) alone effected | – | Little to no effect | little to no effect | – | – | – | minimal effect | – | marginally reduced | marginally reduced |
